Measurements taken from PubChem BioAssay (NCI).
“And” between values parts separate entries of the source, which are not always exact repeats. Equal values may be shown once.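 Tested at 5 concentrations; 48 h exposure; 96-well plates; endpoints linearly interpolated, else capped at highest concentration. The concentration for full growth arrest is given as TGI.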 Where a SMILES comes first, the peptide text is derived from it. The star is where a group is joined. Cbz = O=C(OCc1ccccc1)*

Tests used:
Test in all cases: NCI-60 cell line screen, 48 h
RPMI-8226 leukemia = tested on: RPMI-8226 leukemia
MOLT-4 leukemia = tested on: MOLT-4 leukemia
OVCAR-4 ovarian = tested on: OVCAR-4 ovarian
786-0 renal = tested on: 786-0 renal
SNB-19 CNS = tested on: SNB-19 CNS
TK-10 renal = tested on: TK-10 renal
HL-60(TB) leukemia = tested on: HL-60(TB) leukemia
IGROV1 ovarian = tested on: IGROV1 ovarian
K-562 leukemia = tested on: K-562 leukemia
RXF 393 renal = tested on: RXF 393 renal
SF-539 CNS = tested on: SF-539 CNS
MDA-N = tested on: MDA-N
BT-549 breast = tested on: BT-549 breast
NCI-H226 lung = tested on: NCI-H226 lung
LOX IMVI melanoma = tested on: LOX IMVI melanoma
NCI-H460 lung = tested on: NCI-H460 lung
NCI/ADR-RES ovarian = tested on: NCI/ADR-RES ovarian
OVCAR-3 ovarian = tested on: OVCAR-3 ovarian
SK-OV-3 ovarian = tested on: SK-OV-3 ovarian
UACC-62 melanoma = tested on: UACC-62 melanoma

Row | Compound | TGI (RPMI-8226 leukemia) | TGI (MOLT-4 leukemia) | TGI (OVCAR-4 ovarian) | TGI (786-0 renal) | TGI (SNB-19 CNS) | TGI (TK-10 renal) | TGI (HL-60(TB) leukemia) | TGI (IGROV1 ovarian) | TGI (K-562 leukemia) | TGI (RXF 393 renal) | TGI (SF-539 CNS) | TGI (MDA-N) | TGI (BT-549 breast) | TGI (NCI-H226 lung) | TGI (LOX IMVI melanoma) | TGI (NCI-H460 lung) | TGI (NCI/ADR-RES ovarian) | TGI (OVCAR-3 ovarian) | TGI (SK-OV-3 ovarian) | TGI (UACC-62 melanoma)
1 | CCOC(=O)C(C)NC(=O)C(C)NC(=O)C(C)NC(=O)C(C)NC(=O)C(C)NC(=O)C(C)NC(=O)C(C)NC(=O)OCc1ccccc1 (stereo not drawn) (Cbz-AAAAAAA-OEt; configuration not given here) | > 100 µM | > 100 µM | > 100 µM | > 100 µM | > 100 µM | > 100 µM | > 100 µM | > 100 µM | > 100 µM | > 100 µM | > 100 µM | > 100 µM | > 100 µM | > 100 µM | > 100 µM | > 100 µM | > 100 µM | > 100 µM | > 100 µM | > 100 µM
2 | CC1(C)CCc2c(c(N=Nc3ccccc3)c3ccccc3c2O)O1 | > 100 µM | > 100 µM | > 100 µM | 30.8 µM | > 100 µM | 46.1 µM | > 100 µM | > 100 µM | > 100 µM | 33.6 µM | 69.6 µM | 41.7 µM | > 100 µM | > 100 µM | 54 µM | 53.3 µM | > 100 µM | 53.1 µM | 50.3 µM | > 100 µM
3 | O=C1OC(CN2CCN(c3ccccc3)CC2)CN1C(=S)Nc1ccccc1 (stereo not drawn) | > 100 µM | > 100 µM | > 100 µM | > 100 µM | > 100 µM | > 100 µM | > 100 µM | > 100 µM | > 100 µM | > 100 µM | > 100 µM | > 100 µM | > 100 µM | > 100 µM | > 100 µM | > 100 µM | > 100 µM | > 100 µM | > 100 µM | > 100 µM
4 | CCOC(=O)c1nc2cc(C(F)(F)F)ccc2nc1Nc1ccc(Cl)c(Cl)c1 | > 100 µM | > 100 µM | > 100 µM | > 100 µM | > 100 µM | > 100 µM | > 100 µM | > 100 µM | – | > 100 µM | > 100 µM | > 100 µM | > 100 µM | > 100 µM | > 100 µM | > 100 µM | > 100 µM | > 100 µM | > 100 µM | > 100 µM
5 | C=CCn1c(=O)c(C)cn(/C(=C/C(=O)OCC)C(=O)OCC)c1=O | 39.5 µM | 21.2 µM | 46.4 µM | 19.2 µM | > 86.1 µM | 28.8 µM | 5.48 µM | 31.4 µM | 17.1 µM | 28.2 µM | 63.2 µM | 33.7 µM | 30.2 µM | > 54.7 µM | 21.3 µM | > 68.9 µM | 55.5 µM | 23.3 µM | > 100 µM | 34.4 µM
6 | Fc1ccc(C(OCCN2CCC3CCC(C2)N3Cc2cc3ccccc3[nH]2)c2ccc(F)cc2)cc1 (stereo not drawn) | 3.42 µM | 4.03 µM | 5.68 µM | 3.08 µM | 7.55 µM | 5.38 µM | 3.69 µM | 2.79 µM | – | 3.12 µM | 3.01 µM | 3.1 µM | 5.08 µM | 3.41 µM | 3.18 µM | 3.67 µM | 3.1 µM | 3.39 µM | 5.69 µM | 4.46 µM
7 | CN1C[C@@H]2CCCN2P1Oc1cccc2cccnc12 (stereo partly drawn) | 66.2 µM | 58.1 µM | > 100 µM | > 100 µM | > 100 µM | > 100 µM | 72.9 µM | > 100 µM | > 100 µM | > 100 µM | > 100 µM | > 100 µM | > 100 µM | > 100 µM | > 100 µM | > 100 µM | 62.3 µM | 90.2 µM | > 100 µM | > 100 µM
8 | Cc1ccc(C2=Nc3c(N)nc(N)nc3NC(c3ccccc3)C2)cc1 (stereo not drawn) | > 100 µM | 28.3 µM and 97.6 µM | 27.6 µM and 29.9 µM | 24.3 µM and 31.1 µM | 27 µM and 32.9 µM | 27.6 µM and 40.2 µM | 20.3 µM | 21.2 µM and 21.6 µM | > 100 µM | 25.2 µM and 21.3 µM | 25.3 µM | 5.64 µM and 5.72 µM | 22 µM and 23.6 µM | 29.3 µM and 36.7 µM | 23 µM and 28 µM | 28.3 µM | 16.1 µM and 18.2 µM | 24.8 µM and 24.9 µM | 27.1 µM and 27.6 µM | 22.7 µM and 26 µM
9 | COC(=O)C1=C(C)NC(C)=C([N+](=O)[O-])C1c1cccc(NO)c1 (stereo not drawn) | 12.6 µM | > 26 µM | 40.6 µM | > 87.9 µM | > 100 µM | 26 µM | 5.57 µM | 22.9 µM | > 27.1 µM | > 85.4 µM | 37 µM | 4.14 µM | 16.4 µM | > 47.3 µM | 15.5 µM | 17.5 µM | 46.6 µM | 19.5 µM | > 85.6 µM | > 31.6 µM
